Like-named read-outs stand apart in the source and are kept apart here.
How the values were obtained:
[1] = system: Alopecurus wildtype PPO (ALOMY), PPO herbicide sensitive PPO2, SEQ ID NO 2; assay: PPO enzyme assay, dose-response (fluorescence), wildtype Alopecurus PPO2; assay type: biochemical, Alopecurus myosuroides; details: Table 3b; SEQ ID NO 2, WT
[2] = molecular target: Alopecurus mutant PPO (ALOMY), SEQ ID NO 2 with amino acid substitution; assay: PPO enzyme assay, dose-response (fluorescence), mutated Alopecurus PPO2; assay type: biochemical, Alopecurus myosuroides

Compound	IC50 [1]	other results
C#CCN1C(=O)C(F)(F)Oc2cc(F)c(-n3c(=O)cc(C(F)(F)F)n(C)c3=O)cc21 [1-methyl-6-(trifluoromethyl)-3-(2,2,7-trifluoro-3-oxo-4-prop-2-ynyl-1,4-benzoxazin-6-yl)pyrimidine-2,4-dione]	0.189 nM	–
COC(Oc1ccccc1Oc1cc(-n2c(=O)cc(C(F)(F)F)n(C)c2=O)c(F)cc1Cl)C(=O)OCC(F)F (stereo not drawn) [2,2-difluoroethyl 2-[2-[2-chloro-4-fluoro-5-[3-methyl-2,6-dioxo-4-(trifluoromethyl)pyrimidin-1-yl]phenoxy]phenoxy]-2-methoxy-acetate]	0.335 nM	–
C#CCN1C(=O)C(F)(F)Oc2cc(F)c(N3C(=O)C4=C(CCCC4)C3=O)cc21 [2-(2,2,7-trifluoro-3-oxo-4-prop-2-ynyl-1,4-benzoxazin-6-yl)-4,5,6,7-tetrahydroisoindole-1,3-dione]	0.243 nM	–
CCOCCOC(=O)C(OC)Oc1ccccc1Oc1cc(-n2c(=O)cc(C(F)(F)F)n(C)c2=O)c(F)cc1Cl (stereo not drawn) [2-ethoxyethyl 2-[2-[2-chloro-4-fluoro-5-[3-methyl-2,6-dioxo-4-(trifluoromethyl)pyrimidin-1-yl]phenoxy]phenoxy]-2-methoxy-acetate]	0.816 nM	–
COC(Oc1ccccc1Oc1cc(-n2c(=O)cc(C(F)(F)F)n(C)c2=O)c(F)cc1Cl)C(=O)OCc1ccncc1 (stereo not drawn) [4-pyridylmethyl 2-[2-[2-chloro-4-fluoro-5-[3-methyl-2,6-dioxo-4-(trifluoromethyl)pyrimidin-1-yl]phenoxy]phenoxy]-2-methoxy-acetate]	0.671 nM	–
COC(Oc1ccccc1Oc1cc(-n2c(=O)cc(C(F)(F)F)n(C)c2=O)c(F)cc1Cl)C(=O)OCC1(C)CC1 (stereo not drawn) [(1-methylcyclopropyl)methyl 2-[2-[2-chloro-4-fluoro-5-[3-methyl-2,6-dioxo-4-(trifluoromethyl)pyrimidin-1-yl]phenoxy]phenoxy]-2-methoxy-acetate]	0.751 nM	–
O=C(O)c1cc(Oc2ccc(C(F)(F)F)cc2Cl)ccc1[N+](=O)[O-] [ACIFLUORFEN, 5-(2-CHLORO-4-TRIFLUOROMETHYL-PHENOXY)-2-NITRO-BENZOIC ACID]	1140 nM	IC50 [2]: ≥ 10000 nM
C=CCOC(=O)C(C)(C)OC(=O)c1cc(-n2c(=O)cc(C(F)(F)F)n(C)c2=O)ccc1Cl [BUTAFENACIL]	0.0131 nM	–
CCOC(=O)C(Cl)Cc1cc(-n2nc(C)n(C(F)F)c2=O)c(F)cc1Cl (stereo not drawn) [CARFENTRAZONE-ETHYL]	1.47 nM	–
CCOC(=O)/C(Cl)=C/c1cc(N2C(=O)C3=C(CCCC3)C2=O)ccc1Cl [CINIDON-ETHYL, ethyl (Z)-2-chloro-3-[2-chloro-5-(1,3-dioxo-4,5,6,7-tetrahydroisoindol-2-yl)phenyl]prop-2-enoate]	81.2 nM	–
C#CCN1C(=O)COc2cc(F)c(N3C(=O)C4=C(CCCC4)C3=O)cc21 [FLUMIOXAZIN, 2-(7-fluoro-3-oxo-4-prop-2-ynyl-1,4-benzoxazin-6-yl)-4,5,6,7-tetrahydroisoindole-1,3-dione]	0.144 nM	–
CS(=O)(=O)NC(=O)c1cc(Oc2ccc(C(F)(F)F)cc2Cl)ccc1[N+](=O)[O-] [FOMESAFEN]	90.3 nM	–
CCOC(=O)C(C)OC(=O)c1cc(Oc2ccc(C(F)(F)F)cc2Cl)ccc1[N+](=O)[O-] (stereo not drawn) [LACTOFEN, (2-ethoxy-1-methyl-2-oxo-ethyl) 5-[2-chloro-4-(trifluoromethyl)phenoxy]-2-nitro-benzoate]	18.7 nM	–
CCOc1cc(Oc2ccc(C(F)(F)F)cc2Cl)ccc1[N+](=O)[O-] [OXIFLUORFEN, 2-CHLORO-1-(3-ETHOXY-4-NITROPHENOXY)-4-(TRIFLUOROMETHYL)BENZENE]	8.24 nM	–
CCOC(=O)COc1ncccc1Oc1cc(-n2c(=O)cc(C(F)(F)F)n(C)c2=O)c(F)cc1Cl [S-3100, ethyl 2-[[3-[2-chloro-4-fluoro-5-[3-methyl-2,6-dioxo-4-(trifluoromethyl)pyrimidin-1-yl]phenoxy]-2-pyridyl]oxy]acetate]	0.0645 nM	IC50 [2]: 950 nM; IC50 ([2]; listed as S-3101): 0.552 nM; IC50 ([2]; listed as S-3102): 2.37 nM; IC50 ([2]; listed as S-3103): 992 nM; IC50 ([2]; listed as S-3104): 12.1 nM
COC(Oc1ccccc1Oc1cc(-n2c(=O)cc(C(F)(F)F)n(C)c2=O)c(F)cc1Cl)C(=O)OC1CCCCC1 (stereo not drawn) [cyclohexyl 2-[2-[2-chloro-4-fluoro-5-[3-methyl-2,6-dioxo-4-(trifluoromethyl)pyrimidin-1-yl]phenoxy]phenoxy]-2-methoxy-acetate]	2.99 nM	–
COC(=O)C(OC)Oc1ccccc1Oc1cc(-n2c(=O)cc(C(F)(F)F)n(C)c2=O)c(F)cc1Cl (stereo not drawn) [methyl 2-[2-[2-chloro-4-fluoro-5-[3-methyl-2,6-dioxo-4-(trifluoromethyl)pyrimidin-1-yl]phenoxy]phenoxy]-2-methoxy-acetate]	0.194 nM	–
OXADIARGYL	1.17 nM	–
